Data reported in patent US20120122115A1, “Bacterial quorum sensing biosensor” (priority 2006, published 2012).

Assays:
[1] = biological target: CLPY biosensor (CFP-LuxP-YFP fusion) (Vibrio harveyi, UniProt P54300, D303A); test: CLPY FRET binding affinity determination; parameters: species or system V. harveyi
Description: The YFP or CFP fluorescence response of wild-type and mutant forms of CLPY (1.0 mL, 0.015 mg/mL) to different ligands is measured 5 minutes after addition of the ligand to the protein at room temperature. No time-dependent changes in the CLPY FRET ratio are observed after incubation for 5 minutes. All BAI-2 dilutions are carried out in a borate-free buffer to maintain the DPD:borate ratio (1:4). The CLPY FRET ratio response to different BAI-2 concentrations is used to generate the ligand binding saturation curve. For the determination of the binding affinity (Kd) and the binding stoichiometry n, a nonlinear regression analysis equation (Equation 4) is used as shown below: […]
where R is the observed CLPY FRET ratio response for different ligand concentrations (s) and Rmax and Rmin represent the ligand-free and ligand-saturated FRET ratios, respectively.

[2] = test system: V. harveyi strain MM30 (luxS-); test: Bacterial reporter bioassay (luminescence) and EC50 determination; format: cell-based; conditions: MM30 in borate-free AB medium
Description: V. harveyi strain MM30 (luxS^−) is grown overnight at 28° C. for 16 hours and diluted 1:5000 in fresh borate-free AB medium. Bacteria (90 μL) are added to a 96-well microtiter plate containing 10 μL dilutions of the sample and incubated for 4 hours at 30° C. Luminescence is read using a Wallac Victor2 multimode plate reader (Perkin-Elmer). The BAI-2 concentration required for 50% maximum luminescence response (EC50) is determined using a relationship based on the luminescence response L for different ligand concentrations (s)
where Lmin and Lmax represent the minimum and maximum luminescence responses, respectively, at the time of measurement.

Row | SMILES | CLPY FRET response ([1]; DPD ≦100 μM) | bacterial reporter strain luminescence response (qualitative) [2] | CLPY FRET response ([1]; borate ≦400 μM)
1 | CC(=O)C(=O)C(O)CO (stereo not shown) [DPD, 4,5-dihydroxy-2,3-pentanedione] | did not exhibit any detectable FRET response | did not respond | –
2 | OB(O)O [borate] | – | did not respond | did not exhibit any detectable FRET response
